The values below come from US20160158317A1, “Antimicrobial Peptide Variants and Polynucleotides Encoding Same” (Adenium Biotech A/S, priority 2010, published 2016).

As a reminder, the fraction unbound is free concentration divided by total concentration. High values mean weak binding, low ones extensive binding.

Where a SMILES comes first, the peptide text is derived from it. Bridges are numbered along the chain shown (N, C = ends).

A short description of this data set: Determination of the protein binding (90% serum, 30 kDa filter, HPLC). It counts as in vitro ADME. The conditions noted are these: serum. The method, then: Protein binding assays were performed as follows. The purified peptides were mixed with 90% serum and centrifuged through a 30 kDa filter. The ultra-filtrate and the non filtrated serum samples were quantified by HPLC measurements and the protein binding was subsequently calculated.
`CC(C)[C@@H]1NC(=O)CNC(=O)[C@H](CC(N)=O)NC(=O)[C@H](CCCNC(=N)N)NC(=O)[C@H](Cc2ccc(O)cc2)NC(=O)[C@H](C(C)C)NC(=O)[C@@H]2CSSC[C@H](NC(=O)[C@H](CCCNC(=N)N)NC(=O)[C@H](CCCNC(=N)N)NC1=O)C(=O)N[C@@H](Cc1ccc(O)cc1)C(=O)N[C@@H](CCCNC(=N)N)C(=O)N[C@@H](CCCNC(=N)N)C(=O)N[C@H](C(=O)N[C@@H](CC(N)=O)C(=O)O)CSSC[C@H](NC(=O)[C@H](Cc1ccccc1)NC(=O)CN)C(=O)NCC(=O)N[C@@H](Cc1c[nH]cn1)C(=O)N[C@@H](C(C)C)C(=O)N2` [compound 155] (H-GFCGHVCVYRNGVRRCYRRCN-OH; disulfide 3-20, 7-16 (inferred); N-terminus and C-terminus assumed) showed a free fraction (fraction unbound) of 0.17.

Molecule `CC(C)C[C@@H]1NC(=O)CNC(=O)[C@H](CC(N)=O)NC(=O)[C@H](CCCNC(=N)N)NC(=O)[C@H](CCCCN)NC(=O)[C@H](C)NC(=O)[C@@H]2CSSC[C@H](NC(=O)[C@H](C(C)C)NC(=O)[C@H](CCCNC(=N)N)NC1=O)C(=O)N[C@@H](Cc1ccc(O)cc1)C(=O)N[C@@H](CCCNC(=N)N)C(=O)N[C@@H](CCCNC(=N)N)C(=O)N[C@H](C(=O)N[C@@H](CC(N)=O)C(=O)O)CSSC[C@H](NC(=O)[C@H](Cc1ccccc1)NC(=O)CN)C(=O)N[C@@H](Cc1c[nH]c3ccccc13)C(=O)N[C@@H](Cc1ccc(O)cc1)C(=O)N[C@@H](C)C(=O)N2` [compound 450] (H-GFCWYACAKRNGLRVCYRRCN-OH; disulfide 3-20, 7-16 (inferred); N-terminus and C-terminus assumed) gave a fraction unbound of 0.02.

On to `CC[C@H](C)[C@@H]1NC(=O)[C@H](CC(N)=O)NC(=O)[C@H](Cc2c[nH]c3ccccc23)NC(=O)[C@@H](NC(=O)[C@H](Cc2ccccc2)NC(=O)CN)CSSC[C@@H](C(=O)N[C@@H](CC(N)=O)C(=O)O)NC(=O)[C@H](CCCNC(=N)N)NC(=O)[C@H](CCCNC(=N)N)NC(=O)[C@H](Cc2c[nH]cn2)NC(=O)[C@@H]2CSSC[C@H](NC1=O)C(=O)N[C@@H](C(C)C)C(=O)N[C@@H](Cc1ccc(O)cc1)C(=O)N[C@@H](CCCNC(=N)N)C(=O)N[C@@H](CC(N)=O)C(=O)NCC(=O)N[C@@H](C(C)C)C(=O)N[C@@H](CCCNC(=N)N)C(=O)N[C@@H](C(C)C)C(=O)N2` [compound 262] (H-GFCWNICVYRNGVRVCHRRCN-OH; disulfide 3-20, 7-16 (inferred); N-terminus and C-terminus assumed), for which the fraction unbound was 0.12.

Turning to `CC(C)[C@@H]1NC(=O)CNC(=O)[C@H](CC(N)=O)NC(=O)[C@H](CCCNC(=N)N)NC(=O)[C@H](Cc2ccc(O)cc2)NC(=O)[C@H](C(C)C)NC(=O)[C@@H]2CSSC[C@H](NC(=O)[C@H]([C@@H](C)O)NC(=O)[C@H](CCCNC(=N)N)NC1=O)C(=O)N[C@@H](Cc1ccc(O)cc1)C(=O)N[C@@H](CCCNC(=N)N)C(=O)N[C@@H](CCCNC(=N)N)C(=O)N[C@H](C(=O)N[C@@H](CC(N)=O)C(=O)O)CSSC[C@H](NC(=O)[C@H](Cc1ccccc1)NC(=O)CN)C(=O)N[C@@H](Cc1c[nH]c3ccccc13)C(=O)N[C@@H](Cc1ccc(O)cc1)C(=O)N[C@@H](C(C)C)C(=O)N2` [compound 45] (H-GFCWYVCVYRNGVRTCYRRCN-OH; disulfide 3-20, 7-16), the unbound share (fraction unbound) is 0.02.

The molecule `CC(C)[C@@H]1NC(=O)CNC(=O)[C@H](CC(N)=O)NC(=O)[C@H](CCCNC(=N)N)NC(=O)[C@H](Cc2ccc(O)cc2)NC(=O)[C@H](C(C)C)NC(=O)[C@@H]2CSSC[C@H](NC(=O)[C@H](C(C)C)NC(=O)[C@H](CCCNC(=N)N)NC1=O)C(=O)N[C@@H](Cc1c[nH]cn1)C(=O)N[C@@H](CCCNC(=N)N)C(=O)N[C@@H](CCCNC(=N)N)C(=O)N[C@H](C(=O)N[C@@H](Cc1c[nH]c3ccccc13)C(=O)O)CSSC[C@H](NC(=O)[C@H](Cc1ccccc1)NC(=O)CN)C(=O)N[C@@H](Cc1c[nH]c3ccccc13)C(=O)N[C@@H](CC(N)=O)C(=O)N[C@@H](C(C)C)C(=O)N2` [compound 291] (H-GFCWNVCVYRNGVRVCHRRCW-OH; disulfide 3-20, 7-16 (inferred); N-terminus and C-terminus assumed) gave a free fraction (fraction unbound) of 0.01.

As to `CC(C)[C@@H]1NC(=O)CNC(=O)[C@H](CC(N)=O)NC(=O)[C@H](CCCNC(=N)N)NC(=O)[C@H](CCCCN)NC(=O)[C@H](C(C)C)NC(=O)[C@@H]2CSSC[C@H](NC(=O)[C@H](CCCCN)NC(=O)[C@H](CCCNC(=N)N)NC1=O)C(=O)N[C@@H](Cc1ccc(O)cc1)C(=O)N[C@@H](CCCNC(=N)N)C(=O)N[C@@H](CCCNC(=N)N)C(=O)N[C@H](C(=O)N[C@@H](CC(N)=O)C(=O)O)CSSC[C@H](NC(=O)[C@H](Cc1ccccc1)NC(=O)CN)C(=O)N[C@@H]([C@@H](C)O)C(=O)N[C@@H](Cc1ccc(O)cc1)C(=O)N[C@@H](C(C)C)C(=O)N2` [compound 195] (H-GFCTYVCVKRNGVRKCYRRCN-OH; disulfide 3-20, 7-16 (inferred); N-terminus and C-terminus assumed), the unbound share (fraction unbound) was 0.05.

Take `CC(C)[C@@H]1NC(=O)[C@H](CCCNC(=N)N)NC(=O)[C@H](Cc2ccc(O)cc2)NC(=O)CNC(=O)[C@H](CC(N)=O)NC(=O)[C@H](CCCNC(=N)N)NC(=O)[C@H](Cc2ccc(O)cc2)NC(=O)[C@H](C(C)C)NC(=O)[C@@H]2CSSC[C@H](NC1=O)C(=O)N[C@@H](Cc1c[nH]cn1)C(=O)N[C@@H](CCCNC(=N)N)C(=O)N[C@@H](CCCNC(=N)N)C(=O)N[C@H](C(=O)N[C@@H](CC(N)=O)C(=O)O)CSSC[C@H](NC(=O)[C@H](Cc1ccccc1)NC(=O)CN)C(=O)N[C@@H](Cc1c[nH]c3ccccc13)C(=O)N[C@@H](CC(N)=O)C(=O)N[C@@H](C(C)C)C(=O)N2` [compound 242] (H-GFCWNVCVYRNGYRVCHRRCN-OH; disulfide 3-20, 7-16 (inferred); N-terminus and C-terminus assumed): the unbound share (fraction unbound) was 0.17.

In turn, `CC(C)[C@@H]1NC(=O)CNC(=O)[C@H](CC(N)=O)NC(=O)[C@H](CCCNC(=N)N)NC(=O)[C@H](Cc2ccc(O)cc2)NC(=O)[C@H](C(C)C)NC(=O)[C@@H]2CSSC[C@H](NC(=O)[C@H](C(C)C)NC(=O)[C@H](CCCNC(=N)N)NC1=O)C(=O)N[C@@H](CCCNC(=N)N)C(=O)N[C@@H](CCCNC(=N)N)C(=O)N[C@@H](CCCNC(=N)N)C(=O)N[C@H](C(=O)N[C@@H](CC(N)=O)C(=O)O)CSSC[C@H](NC(=O)[C@H](Cc1ccccc1)NC(=O)CN)C(=O)N[C@@H](Cc1ccccc1)C(=O)N[C@@H](Cc1ccc(O)cc1)C(=O)N[C@@H](C(C)C)C(=O)N2` [compound 56] (H-GFCFYVCVYRNGVRVCRRRCN-OH; disulfide 3-20, 7-16 (inferred); N-terminus and C-terminus assumed) showed a fraction unbound of 0.06.

Consider `CC(C)[C@@H]1NC(=O)CNC(=O)[C@H](CC(N)=O)NC(=O)[C@H](CCCNC(=N)N)NC(=O)[C@H](Cc2ccc(O)cc2)NC(=O)[C@H](C(C)C)NC(=O)[C@@H]2CSSC[C@H](NC(=O)CNC(=O)[C@H](CCCNC(=N)N)NC1=O)C(=O)N[C@@H](Cc1c[nH]cn1)C(=O)N[C@@H](CCCNC(=N)N)C(=O)N[C@@H](CCCNC(=N)N)C(=O)N[C@H](C(=O)N[C@@H](CC(N)=O)C(=O)O)CSSC[C@H](NC(=O)[C@H](Cc1ccccc1)NC(=O)CN)C(=O)N[C@@H](Cc1c[nH]c3ccccc13)C(=O)N[C@@H](CC(N)=O)C(=O)N[C@@H](C(C)C)C(=O)N2` [compound 246] (H-GFCWNVCVYRNGVRGCHRRCN-OH; disulfide 3-20, 7-16 (inferred); N-terminus and C-terminus assumed), for which the fraction unbound was 0.21.
